{"source": "paper PMC7094952", "about": "(Nature, 2010)", "key": {"[1]": {"system": "BVDV replicon", "experiment": "BVDV replicon", "type": "cell-based, bovine viral diarrhoea virus", "details": "Bovine viral diarrhea virus isolates and strains, Huh-7, in Bos taurus"}, "[2]": {"system": "Infectious BVDV", "experiment": "BVDV cell protection assay", "type": "cell-based, bovine viral diarrhoea virus", "details": "Bovine viral diarrhea virus isolates and strains, MDBK, in Bos taurus"}, "[3]": {"experiment": "Cytotoxicity in Huh-7 cells", "type": "cell-based", "details": "human, Huh-7 cells (liver)"}, "[4]": {"system": "panel of 10 RNA and DNA viruses", "experiment": "organism not typed", "type": "cell-based"}, "[5]": {"system": "HCV genotype 1a replicon (NS5A variants)", "experiment": "Transient replication assay, genotype 1a wild type and resistant variants", "type": "cell-based", "details": "Hepatitis C virus, GETYPE1A, most resistant 1a variant, L31V"}, "[6]": {"system": "HCV replicon", "experiment": "HCV replicon inhibitor combination studies", "type": "cell-based, hepatitis C virus", "details": "overall"}, "[7]": {"system": "genotype 1a replicon cells", "experiment": "HCV replicon combination study with NS3 inhibitor in genotype 1a replicon cells", "type": "cell-based, hepatitis C virus", "details": "ITMN-191, overall"}, "[8]": {"system": "genotype 1a replicon", "experiment": "Genotype 1a replicon assay with 40% human serum", "type": "cell-based", "details": "Hepatitis C virus, GETYPE1A, read-out: EC90 (protein-binding-adjusted)"}, "[9]": {"system": "genotype 1b replicon", "experiment": "Genotype 1b replicon assay with 40% human serum", "type": "cell-based", "details": "Hepatitis C virus, GETYPE1B, read-out: EC90 (protein-binding-adjusted)"}, "[10]": {"experiment": "Battery of in vitro receptor binding and enzymatic assays", "details": "assessment of promiscuity"}, "[11]": {"experiment": "Preclinical pharmacokinetics", "type": "in vivo, four preclinical species"}, "[12]": {"experiment": "Single ascending-dose study in healthy, non-HCV-infected subjects", "type": "in vivo, human"}, "[13]": {"system": "HCV genotype 1", "experiment": "Single ascending-dose study in HCV-infected subjects: plasma HCV RNA", "type": "in vivo, human"}, "[14]": {"system": "HCV genotype 1a", "type": "in vivo, human", "details": "genotype 1a subjects, 24 h"}, "[15]": {"system": "HCV genotype 1b", "type": "in vivo, human", "details": "for mean reduction in HCV viral load / range of reduction in HCV viral load: genotype 1b subjects, 24 h"}, "[16]": {"system": "HCV replicons of genotypes 1a, 1b, 2a, 3a, 4a and 5a", "experiment": "HCV replicons, all genotypes tested", "type": "cell-based", "details": "Hepatitis C virus, read-out: EC50 values, all genotypes tested"}, "[17]": {"target": "T1, genotype 1b HCV NS5A (Hepatitis C virus genotype 1b, UniProt Q9WMX2, S2204I)", "T1 sequence (Q9WMX2 1973-2419 S2204I limits assumed)": "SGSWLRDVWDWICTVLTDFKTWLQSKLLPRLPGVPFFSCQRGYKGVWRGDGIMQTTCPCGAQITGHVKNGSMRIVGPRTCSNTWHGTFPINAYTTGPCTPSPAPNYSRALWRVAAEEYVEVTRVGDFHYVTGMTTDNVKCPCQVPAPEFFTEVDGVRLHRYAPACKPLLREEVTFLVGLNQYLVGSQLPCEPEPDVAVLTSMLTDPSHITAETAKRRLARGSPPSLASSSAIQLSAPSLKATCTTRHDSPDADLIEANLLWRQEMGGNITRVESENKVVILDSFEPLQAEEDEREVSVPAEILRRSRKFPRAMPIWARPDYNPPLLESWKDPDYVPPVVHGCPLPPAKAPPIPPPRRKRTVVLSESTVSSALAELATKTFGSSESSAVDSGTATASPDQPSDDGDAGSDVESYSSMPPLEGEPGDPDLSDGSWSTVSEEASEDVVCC", "experiment": "NS5A inhibitor binding assay", "details": "1 μM, genotype 1b replicon cells, about 18 h, streptavidin agarose beads, immunoblot"}, "[18]": {"system": "HCV replicon genotype 1b, Con1", "experiment": "HCV genotype 1b", "type": "cell-based", "details": "Hepatitis C virus, GETYPE1B, read-out: EC50 (subgenomic viral RNA replication)"}, "[19]": {"target": "HCV NS3 (Hepatitis C virus genotype 1b, UniProt Q9WMX2)", "experiment": "Biotin/streptavidin pull-down, immunoblot for NS3", "type": "binding", "details": "genotype 1b replicon cells"}, "[20]": {"target": "HCV NS5B (Hepatitis C virus genotype 1b, UniProt Q9WMX2)", "experiment": "Biotin/streptavidin pull-down, immunoblot for NS5B", "type": "binding", "details": "genotype 1b replicon cells"}, "[21]": {"target": "T2, BVDV NS5A (Bovine viral diarrhea virus, UniProt P19711)", "T2 sequence (P19711 2774-3269 limits assumed)": "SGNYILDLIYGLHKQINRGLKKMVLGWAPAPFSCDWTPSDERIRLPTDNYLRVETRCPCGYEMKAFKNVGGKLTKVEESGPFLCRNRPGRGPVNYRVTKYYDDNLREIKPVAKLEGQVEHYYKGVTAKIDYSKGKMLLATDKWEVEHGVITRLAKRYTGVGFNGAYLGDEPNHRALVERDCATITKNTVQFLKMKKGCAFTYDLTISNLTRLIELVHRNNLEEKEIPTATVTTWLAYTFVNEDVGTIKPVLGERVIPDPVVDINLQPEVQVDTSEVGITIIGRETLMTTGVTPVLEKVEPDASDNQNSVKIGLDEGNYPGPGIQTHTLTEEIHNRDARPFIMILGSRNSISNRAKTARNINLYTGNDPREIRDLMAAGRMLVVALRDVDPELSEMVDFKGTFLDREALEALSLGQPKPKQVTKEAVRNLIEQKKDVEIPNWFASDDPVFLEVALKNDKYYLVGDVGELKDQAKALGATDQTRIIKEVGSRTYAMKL", "experiment": "Biotin/streptavidin pull-down in BVDV replicons", "type": "binding, bovine viral diarrhoea virus", "details": "replicons expressing BVDV RNA"}, "[22]": {"system": "Y93H replicon", "experiment": "Y93H replicon assay", "type": "cell-based", "details": "Hepatitis C virus"}, "[23]": {"details": "1 mg single dose, 24 h after administration"}}, "note": "Values joined by “and” are separate entries in the source; they are usually repeats but may differ in a detail not shown here. Equal values may be shown once. “Also recorded” adds a separate entry of the source. Read-outs that look alike come from different tables or passages of the source."}
{"molecule": "COC(=O)N[C@H](C(=O)N1CCC[C@H]1c1ncc(-c2ccc(-c3ccc(-c4cnc([C@@H]5CCCN5C(=O)[C@@H](NC(=O)OC)C(C)C)[nH]4)cc3)cc2)[nH]1)C(C)C", "note": "[BMS-790052]", "values": [{"measurement": "EC50", "setting": "[1]", "result": 9, "unit": "µM"}, {"measurement": "EC50", "setting": "[2]", "result": 12, "unit": "µM"}, {"measurement": "CC50", "setting": "[3]", "result": "17 ± 1", "unit": "µM"}, {"measurement": "EC50", "setting": "[4]", "result": "> 10", "unit": "µM"}, {"measurement": "EC50", "setting": "[5]", "result": "~0.02", "unit": "µM"}, {"measurement": "Combination effect with Interferon-α2β (intron A)", "setting": "[6]", "result": "Synergistic"}, {"measurement": "Combination effect with nucleoside NS5B polymerase inhibitor NM-107", "setting": "[6]", "result": "Additive/synergistic"}, {"measurement": "Combination effect with non-nucleoside NS5B polymerase inhibitor", "setting": "[6]; palm site II allosteric inhibitor", "result": "Additive/synergistic"}, {"measurement": "Combination effect with NS3 protease inhibitor", "setting": "[7]", "result": "Additive/synergistic"}, {"measurement": "EC90", "setting": "[8]", "result": 0.28, "unit": "ng/mL"}, {"measurement": "EC90", "setting": "[9]", "result": 0.04, "unit": "ng/mL"}, {"measurement": "Effects in battery of in vitro receptor binding and enzymatic assays", "setting": "[10]", "result": "no significant effects"}, {"measurement": "Oral bioavailability", "setting": "[11]; four preclinical species", "result": "orally bioavailable"}, {"measurement": "Liver distribution", "setting": "[11]; preclinical species", "result": "distributes effectively to the liver"}, {"measurement": "Drug concentrations at and beyond 24 h post-dose", "setting": "[12]; all healthy subjects, versus EC90 for genotypes 1a and 1b", "result": "greater than the protein-binding-adjusted EC90"}, {"measurement": "Exposure versus dose", "setting": "[12]; healthy subjects, 1 to 200 mg oral solution", "result": "dose-proportional exposures"}, {"measurement": "Absorption after oral administration", "setting": "[12]; healthy subjects, oral solution", "result": "readily absorbed"}, {"measurement": "Safety and tolerability", "setting": "[12]; healthy subjects, single oral doses up to 200 mg", "result": "safe and well tolerated"}, {"measurement": "mean reduction in HCV viral load", "setting": "[13]; [23]", "result": 1.8, "unit": "log10"}, {"measurement": "range of reduction in HCV viral load", "setting": "[13]; [23]", "result": "0.2–3.0 log10"}, {"measurement": "mean maximal HCV RNA decline", "setting": "[13]; 100 mg single dose", "result": 3.6, "unit": "log10"}, {"measurement": "range of maximal HCV RNA decline", "setting": "[13]; 100 mg single dose", "result": "3.0–4.1 log10"}, {"measurement": "mean reduction in HCV viral load", "setting": "[14]; 1 mg", "result": 1.8, "unit": "log10"}, {"measurement": "range of reduction in HCV viral load", "setting": "[14]; 1 mg", "result": "0.2–3.0 log10"}, {"measurement": "mean reduction in HCV viral load", "setting": "[14]; 10 mg", "result": 2.9, "unit": "log10"}, {"measurement": "range of reduction in HCV viral load", "setting": "[14]; 10 mg", "result": "2.9–3.0 log10"}, {"measurement": "mean reduction in HCV viral load", "setting": "[14]; 100 mg", "result": 3.6, "unit": "log10"}, {"measurement": "range of reduction in HCV viral load", "setting": "[14]; 100 mg", "result": "3.5–3.6 log10"}, {"measurement": "HCV RNA measurement at hour 144", "setting": "[15]; 100 mg single dose, two individual subjects with genotype 1b", "result": "less than 25 IU ml^-1 and 35 IU ml^-1"}, {"measurement": "mean reduction in HCV viral load", "setting": "[15]; 10 mg", "result": 3.6, "unit": "log10"}, {"measurement": "range of reduction in HCV viral load", "setting": "[15]; 10 mg", "result": "3.1–4.0 log10"}, {"measurement": "mean reduction in HCV viral load", "setting": "[15]; 100 mg", "result": 3.1, "unit": "log10"}, {"measurement": "range of reduction in HCV viral load", "setting": "[15]; 100 mg", "result": "2.7–3.4 log10"}, {"measurement": "EC50", "setting": "[16]", "result": "0.009 to 0.146", "unit": "nM"}, {"measurement": "Headache (most frequent adverse event), subjects reporting", "setting": "HCV-infected subjects", "result": "four"}, {"measurement": "Safety and tolerability", "setting": "HCV-infected subjects, single oral doses up to 100 mg", "result": "safe and well tolerated"}, {"measurement": "half-life", "setting": "both, human, plasma, po", "result": "10 to 14", "unit": "h"}]}
{"molecule": "O=C1N[C@H]2[C@H](CS[C@H]2CCCCC(=O)N2CCC[C@@H]2C(=O)Nc2ccc(/C=C/c3ccc(NC(=O)[C@H]4CCCN4C(=O)Cc4ccccc4)cc3)cc2)N1", "note": "[Compound 2]", "values": [{"measurement": "Binding to HCV NS5A (pull-down)", "setting": "[17]", "result": "does not"}]}
{"molecule": "O=C1N[C@H]2[C@H](CS[C@H]2CCCCC(=O)N2CCC[C@H]2C(=O)Nc2ccc(/C=C/c3ccc(NC(=O)[C@@H]4CCCN4C(=O)Cc4ccccc4)cc3)cc2)N1", "note": "[Compound 1]", "values": [{"measurement": "EC50", "setting": "[18]", "result": 0.033, "unit": "µM"}, {"measurement": "Binding to HCV NS5A (pull-down)", "setting": "[17]", "result": "pulled down efficiently; also recorded: binds"}, {"measurement": "NS3 in pull-down", "setting": "[19]", "result": "not detected"}, {"measurement": "NS5B in pull-down", "setting": "[20]", "result": "not detected"}, {"measurement": "Binding to BVDV NS5A (pull-down)", "setting": "[21]", "result": "failed to bind"}, {"measurement": "EC50", "setting": "[22]", "result": "> 10", "unit": "µM"}]}
